In article PMC8286840, “Identifying SARS-CoV-2 antiviral compounds by screening for small molecule inhibitors of Nsp3 papain-like protease” (Biochemical Journal, 2021):
Where a name gives a salt, the structure may show the parent alone. Read-outs that look alike come from different tables or passages of the source.

How the values were obtained:
[1] = target: T1, SARS-CoV-2 PLpro (nsp3 1564–1878) (Severe acute respiratory syndrome coronavirus 2, UniProt P0DTD1); assay: biochemical; design: FRET-quenched peptide (Pro3) cleavage by PLpro, 10 min pre-incubation, slope over 20 min, normalised to no-compound control; conditions: low concentration screen, read-out: % of control remaining
[2] = target: T1, SARS-CoV-2 PLpro (nsp3 1564–1878); assay: biochemical; design: FRET-quenched peptide (Pro3) cleavage by PLpro, 10 min pre-incubation, slope over 20 min, normalised to no-compound control; conditions: high concentration screen, read-out: % of control remaining

`COc1nccc(-c2c(-c3ccc(F)cc3)ncn2[C@H]2CC[C@H](O)CC2)n1` [SB 239063] showed a remaining activity at 1.25 µM ([1]; Well no.=2667) of 93% and a remaining activity at 3.75 µM ([2]; Well no.=2667) of 98%.

In the case of `O=C(O)CCC/C=C\C[C@@H]1[C@@H](/C=C/[C@H](O)C2Cc3ccccc3C2)[C@@H](F)C[C@@H]1O` [AL-8810], the remaining activity at 1.25 µM ([1]; Well no.=205) is reported as 100% and the remaining activity at 3.75 µM ([2]; Well no.=205) is reported as 104%.

`CN1CCN(c2ccc3nc(-c4cc(C(C)(C)C)c(OCCCC(=O)NCCCN=[N+]=[N-])c(C(C)(C)C)c4)[nH]c3c2)CC1` [MIR96-IN-1] showed a remaining activity at 1.25 µM ([1]; Well no.=7014) of 94.6% and a remaining activity at 3.75 µM ([2]; Well no.=7014) of 81.9%.

`C[C@H]1[C@H](OC(=O)CCC(=O)O)O[C@@H]2O[C@@]3(C)CC[C@H]4[C@H](C)CC[C@@H]1[C@@]24OO3` [Artesunate] showed a remaining activity at 1.25 µM ([1]; Well no.=2200) of 100%, a remaining activity at 1.25 µM ([1]; Well no.=3083) of 96% and a remaining activity at 3.75 µM ([2]; Well no.=2200) of 98.2%. It also gave a remaining activity at 3.75 µM ([2]; Well no.=3083) of 102%.

Compound `N#Cc1cc(CN2CCC(Nc3ncnc4sc(Cl)cc34)CC2)ccc1F` [PRX-08066] has a remaining activity at 1.25 µM ([1]; Well no.=4792) of 101% and a remaining activity at 3.75 µM ([2]; Well no.=4792) of 97.9%.

Work on `O=C(O[C@@H]1C[C@@H]2C[C@H]3C[C@H](C1)N2CC3=O)c1c[nH]c2ccccc12` [Dolasetron (Mesylate hydrate)] yielded a remaining activity at 1.25 µM ([1]; Well no.=7381) of 108% and a remaining activity at 3.75 µM ([2]; Well no.=7381) of 98%.

`CSc1ccc2c(c1)N(CCC1CCCCN1C)c1ccccc1S2` (centres unmarked) [Thioridazine (hydrochloride)] showed a remaining activity at 1.25 µM ([1]; Well no.=7376) of 97.9% and a remaining activity at 3.75 µM ([2]; Well no.=7376) of 98.1%.

For `N=C(N)NCCCCN` [Agmatine (sulfate)], the remaining activity at 1.25 µM ([1]; Well no.=7803) was 104% and the remaining activity at 3.75 µM ([2]; Well no.=7803) was 106%.

Work on `Nc1nc(Nc2ccccc2)nc2c1ncn2[C@@H]1O[C@H](CO)[C@@H](O)[C@H]1O` [2-Phenylaminoadenosine] yielded a remaining activity at 1.25 µM ([1]; Well no.=1213) of 102% and a remaining activity at 3.75 µM ([2]; Well no.=1213) of 106%.

In the case of `O=C1[C@H](CC[C@H](O)c2ccc(F)cc2)[C@@H](c2ccc(O)cc2)N1c1ccc(F)cc1` [Ezetimibe], the remaining activity at 1.25 µM ([1]; Well no.=8428) is reported as 91.6% and the remaining activity at 3.75 µM ([2]; Well no.=8428) is reported as 89.1%.

`CN(C)CCC(c1ccc(Br)cc1)c1ccccn1` (racemic) was tested, and the remaining activity at 1.25 µM ([1]; Well no.=219) was 97.7% and the remaining activity at 3.75 µM ([2]; Well no.=219) was 97.9%.

With `Cn1cnc2c1c(=O)[nH]c(=O)n2C` [Theobromine] the remaining activity at 1.25 µM ([1]; Well no.=1479) was 96.7%, the remaining activity at 1.25 µM ([1]; Well no.=3491) was 95.7% and the remaining activity at 1.25 µM ([1]; Well no.=6387) was 101%. For the same compound, the remaining activity at 1.25 µM ([1]; Well no.=8067) was 106%, the remaining activity at 3.75 µM ([2]; Well no.=1479) was 97.3% and the remaining activity at 3.75 µM ([2]; Well no.=3491) was 96.4%. It also gave a remaining activity at 3.75 µM ([2]; Well no.=6387) of 102% and a remaining activity at 3.75 µM ([2]; Well no.=8067) of 104%.

For `CN1CCCCC1Cn1cc(C(=O)c2cc([N+](=O)[O-])ccc2I)c2ccccc21` (centres unmarked) [AM-1241], the remaining activity at 1.25 µM ([1]; Well no.=5289) was 101% and the remaining activity at 3.75 µM ([2]; Well no.=5289) was 99%.

`CC(=O)NCC(=O)O` [N-Acetylglycine] was tested, and the remaining activity at 1.25 µM ([1]; Well no.=6779) was 96.3% and the remaining activity at 3.75 µM ([2]; Well no.=6779) was 96%.

In the case of `CC(=O)Oc1cc2c(s1)CCN(C(C(=O)C1CC1)c1ccccc1F)C2` (centres unmarked) [Prasugrel], the remaining activity at 1.25 µM ([1]; Well no.=6562) is reported as 97% and the remaining activity at 3.75 µM ([2]; Well no.=6562) is reported as 102%.

`CC[C@@H]1C(=O)OC[C@@H]1Cc1cncn1C` [Pilocarpine (Hydrochloride)] was tested, and the remaining activity at 1.25 µM ([1]; Well no.=7627) was 99.7% and the remaining activity at 3.75 µM ([2]; Well no.=7627) was 96.7%.

`COc1ccc(CCCn2ncc3c2nc(N)n2nc(-c4ccco4)nc32)cc1` [SCH-442416] showed a remaining activity at 1.25 µM ([1]; Well no.=5870) of 98.1% and a remaining activity at 3.75 µM ([2]; Well no.=5870) of 97.4%.

`O=C(Nc1cc(C(=O)Nc2ccc(S(=O)(=O)O)cc2S(=O)(=O)O)cc(C(=O)Nc2ccc(S(=O)(=O)O)cc2S(=O)(=O)O)c1)Nc1cc(C(=O)Nc2ccc(S(=O)(=O)O)cc2S(=O)(=O)O)cc(C(=O)Nc2ccc(S(=O)(=O)O)cc2S(=O)(=O)O)c1` [NF449 octasodium salt] gave a remaining activity at 1.25 µM ([1]; Well no.=1095) of 97.6% and a remaining activity at 3.75 µM ([2]; Well no.=1095) of 98.3%.

Compound `CCCCCNC(=N)N/N=C/c1c[nH]c2ccc(OC)cc12` [Tegaserod (maleate)] has a remaining activity at 1.25 µM ([1]; Well no.=6615) of 103% and a remaining activity at 3.75 µM ([2]; Well no.=6615) of 104%.

With `Cc1c2ccncc2c(C)c2c1[nH]c1ccccc12` [Ellipticine] the remaining activity at 1.25 µM ([1]; Well no.=651) was 95.5%, the remaining activity at 1.25 µM ([1]; Well no.=3271) was 102% and the remaining activity at 3.75 µM ([2]; Well no.=651) was 91.7%. The remaining activity at 3.75 µM ([2]; Well no.=3271) was 98%.

With `Oc1ccc(OC2CCCCO2)cc1` (centres unmarked) [Deoxyarbutin] the remaining activity at 1.25 µM ([1]; Well no.=5166) was 103% and the remaining activity at 3.75 µM ([2]; Well no.=5166) was 101%.

`CCCCC[C@H](O)/C=C/C=C/C/C=C\CCCC(=O)O` [12(S)-HHT] showed a remaining activity at 1.25 µM ([1]; Well no.=4234) of 101% and a remaining activity at 3.75 µM ([2]; Well no.=4234) of 103%.

With `O=C1NCC2(CCN(CCc3ccccc3)CC2)O1` [Fenspiride hydrochloride] the remaining activity at 1.25 µM ([1]; Well no.=469) was 99.1% and the remaining activity at 3.75 µM ([2]; Well no.=469) was 103%.

Compound `O=C(COCC(=O)Nc1ccc(Cl)cc1C(=O)O)Nc1cccc(-c2ccoc2)c1` [TM5441] has a remaining activity at 1.25 µM ([1]; Well no.=6540) of 109% and a remaining activity at 3.75 µM ([2]; Well no.=6540) of 105%.

`Cc1ccc(-n2nc(C(C)(C)C)cc2NC(=O)Nc2ccc(OCCN3CCOCC3)c3ccccc23)cc1` [BIRB 796 (Doramapimod)] showed a remaining activity at 1.25 µM ([1]; Well no.=5264) of 89.3% and a remaining activity at 3.75 µM ([2]; Well no.=5264) of 89.7%.

For `CCCN(CCC)CCc1cccc2c1CC(=O)N2` [Ropinirole hydrochloride], the remaining activity at 1.25 µM ([1]; Well no.=1444) was 93.6% and the remaining activity at 3.75 µM ([2]; Well no.=1444) was 97.7%.

`C[C@H]1CN(C[C@H](Cc2ccccc2)C(=O)NCC(=O)O)CC[C@@]1(C)c1cccc(O)c1` [Alvimopan] gave a remaining activity at 1.25 µM ([1]; Well no.=6051) of 95.7% and a remaining activity at 3.75 µM ([2]; Well no.=6051) of 96.9%.

For `O=C(O)CCC/C=C\C[C@@H]1[C@H](CNNC(=O)Nc2ccccc2)[C@H]2CC[C@@H]1O2` [SQ-29548], the remaining activity at 1.25 µM ([1]; Well no.=4526) was 92.8% and the remaining activity at 3.75 µM ([2]; Well no.=4526) was 94.8%.

`CCc1c2c(nc3ccc(OC(=O)N4CCC(N5CCCCC5)CC4)cc13)-c1cc3c(c(=O)n1C2)COC(=O)[C@]3(O)CC` [Irinotecan] showed a remaining activity at 1.25 µM ([1]; Well no.=5099) of 99.6% and a remaining activity at 3.75 µM ([2]; Well no.=5099) of 98.8%.

Compound `COc1cc(C[C@H]2C(=O)OC[C@@H]2Cc2ccc(OC)c(OC)c2)ccc1O` [Arctigenin - (3R,4R)-4-[(3,4-Dimethoxyphenyl)methyl]dihydro-3-[(4-hydroxy-3-methoxyphenyl)methyl]-2(3H)-furanone] has a remaining activity at 1.25 µM ([1]; Well no.=2446) of 105% and a remaining activity at 3.75 µM ([2]; Well no.=2446) of 105%.

In the case of `COc1cc(OC2CCN(C)CC2)ccc1Nc1ncc2c(n1)n(C1CCCC1)c(=O)n2C` [AZ 3146], the remaining activity at 1.25 µM ([1]; Well no.=5029) is reported as 102% and the remaining activity at 3.75 µM ([2]; Well no.=5029) is reported as 101%.

Compound `Cc1cc(C)c(NC(=O)C[C@H](CC(=O)O)c2cccc3ccccc23)c(C(=O)N2CCC3(CCCC3)CC2)c1` [CR 2945] has a remaining activity at 1.25 µM ([1]; Well no.=1111) of 105% and a remaining activity at 3.75 µM ([2]; Well no.=1111) of 98.1%.
